Assay results: ChEMBL document CHEMBL4706488, “Design, synthesis and biological evaluation of 2-amino-4-(1,2,4-triazol)pyridine derivatives as potent EGFR inhibitors to overcome TKI-resistance” (Eur J Med Chem, 2020)

What was measured:
A-431 = assay: cells; assay type: functional, cell-based; conditions: Homo sapiens;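 note: antiproliferative test in A-431 cells carrying wild-type EGFR, with cell growth inhibition read by MTT assay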
Description: Antiproliferative activity against human A-431 cells harboring wild type EGFR assessed as inhibition of cell growth by MTT assay

NCI-H1975 = assay: cells; assay type: functional, cell-based; conditions: Homo sapiens
U-87 MG = assay: cells; assay type: functional, cell-based, U-87MG ATCC; conditions: Homo sapiens;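 note: antiproliferative effect on U-87 MG cells carrying wild-type EGFR, growth inhibition read out by MTT assay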
Description: Antiproliferative activity against human U-87MG cells harboring wild type EGFR assessed as inhibition of cell growth by MTT assay

cells = assay type: functional, tissue-based; conditions: Homo sapiens, U87MG Human EGFR vIII
Description: Antiproliferative activity against human U87MG Human EGFR vIII cells overexpressing EGFRvIII mutant assessed as inhibition of cell growth by MTT assay

[1] = molecular target: Epidermal growth factor receptor (Homo sapiens, UniProt P00533, L858R/T790M); assay: biochemical; assay type: cell-based, Sf21
[2] = molecular target: Epidermal growth factor receptor (Homo sapiens, UniProt P00533); assay: biochemical; assay type: cell-based, Sf21
Chain of Epidermal growth factor receptor (Homo sapiens, UniProt P00533) (P00533 whole entry): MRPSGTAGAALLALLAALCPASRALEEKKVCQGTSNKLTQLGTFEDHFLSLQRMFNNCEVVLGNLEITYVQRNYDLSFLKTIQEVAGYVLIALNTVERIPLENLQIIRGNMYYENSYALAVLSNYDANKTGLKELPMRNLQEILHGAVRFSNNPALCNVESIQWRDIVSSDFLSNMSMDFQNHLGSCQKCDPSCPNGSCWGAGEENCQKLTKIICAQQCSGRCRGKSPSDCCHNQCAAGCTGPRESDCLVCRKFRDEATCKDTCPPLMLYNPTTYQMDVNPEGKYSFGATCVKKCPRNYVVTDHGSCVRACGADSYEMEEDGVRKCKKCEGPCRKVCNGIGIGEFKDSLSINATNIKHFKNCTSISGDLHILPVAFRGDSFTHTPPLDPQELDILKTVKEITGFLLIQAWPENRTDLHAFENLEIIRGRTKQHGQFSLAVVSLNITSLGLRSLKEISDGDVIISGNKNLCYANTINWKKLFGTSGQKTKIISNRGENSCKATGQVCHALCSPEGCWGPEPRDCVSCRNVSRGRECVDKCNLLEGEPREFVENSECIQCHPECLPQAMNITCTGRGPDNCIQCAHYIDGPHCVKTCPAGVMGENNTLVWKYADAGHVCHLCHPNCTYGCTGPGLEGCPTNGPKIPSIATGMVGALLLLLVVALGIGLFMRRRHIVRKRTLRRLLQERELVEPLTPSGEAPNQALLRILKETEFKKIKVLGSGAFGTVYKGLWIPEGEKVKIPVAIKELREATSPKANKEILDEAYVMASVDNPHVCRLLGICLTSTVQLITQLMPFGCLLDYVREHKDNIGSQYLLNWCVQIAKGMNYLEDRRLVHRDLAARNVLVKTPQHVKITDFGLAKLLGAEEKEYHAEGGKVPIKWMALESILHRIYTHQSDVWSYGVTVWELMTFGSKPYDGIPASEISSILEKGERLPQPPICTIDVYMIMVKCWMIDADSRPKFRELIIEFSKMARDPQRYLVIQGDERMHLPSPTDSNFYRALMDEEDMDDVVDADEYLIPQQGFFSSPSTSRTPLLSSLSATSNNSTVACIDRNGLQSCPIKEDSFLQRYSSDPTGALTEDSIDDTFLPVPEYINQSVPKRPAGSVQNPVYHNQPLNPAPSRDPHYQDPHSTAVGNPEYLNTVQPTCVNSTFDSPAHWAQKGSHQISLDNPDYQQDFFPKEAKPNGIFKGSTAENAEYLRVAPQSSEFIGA
Description: Inhibition of wild type N-terminal GST-tagged human EGFR cytoplasmic domain (669 to 1210 residues) expressed in baculovirus infected Sf21 cells using biotin-labeled TK substrate preincubated for 30 mins followed by substrate and ATP addition at Km concentration and further incubated for 20 mins by HTRF assay

Chain of Epidermal growth factor receptor (Homo sapiens, UniProt P00533, L858R/T790M) (P00533 25-1210 T790M/L858R limits assumed): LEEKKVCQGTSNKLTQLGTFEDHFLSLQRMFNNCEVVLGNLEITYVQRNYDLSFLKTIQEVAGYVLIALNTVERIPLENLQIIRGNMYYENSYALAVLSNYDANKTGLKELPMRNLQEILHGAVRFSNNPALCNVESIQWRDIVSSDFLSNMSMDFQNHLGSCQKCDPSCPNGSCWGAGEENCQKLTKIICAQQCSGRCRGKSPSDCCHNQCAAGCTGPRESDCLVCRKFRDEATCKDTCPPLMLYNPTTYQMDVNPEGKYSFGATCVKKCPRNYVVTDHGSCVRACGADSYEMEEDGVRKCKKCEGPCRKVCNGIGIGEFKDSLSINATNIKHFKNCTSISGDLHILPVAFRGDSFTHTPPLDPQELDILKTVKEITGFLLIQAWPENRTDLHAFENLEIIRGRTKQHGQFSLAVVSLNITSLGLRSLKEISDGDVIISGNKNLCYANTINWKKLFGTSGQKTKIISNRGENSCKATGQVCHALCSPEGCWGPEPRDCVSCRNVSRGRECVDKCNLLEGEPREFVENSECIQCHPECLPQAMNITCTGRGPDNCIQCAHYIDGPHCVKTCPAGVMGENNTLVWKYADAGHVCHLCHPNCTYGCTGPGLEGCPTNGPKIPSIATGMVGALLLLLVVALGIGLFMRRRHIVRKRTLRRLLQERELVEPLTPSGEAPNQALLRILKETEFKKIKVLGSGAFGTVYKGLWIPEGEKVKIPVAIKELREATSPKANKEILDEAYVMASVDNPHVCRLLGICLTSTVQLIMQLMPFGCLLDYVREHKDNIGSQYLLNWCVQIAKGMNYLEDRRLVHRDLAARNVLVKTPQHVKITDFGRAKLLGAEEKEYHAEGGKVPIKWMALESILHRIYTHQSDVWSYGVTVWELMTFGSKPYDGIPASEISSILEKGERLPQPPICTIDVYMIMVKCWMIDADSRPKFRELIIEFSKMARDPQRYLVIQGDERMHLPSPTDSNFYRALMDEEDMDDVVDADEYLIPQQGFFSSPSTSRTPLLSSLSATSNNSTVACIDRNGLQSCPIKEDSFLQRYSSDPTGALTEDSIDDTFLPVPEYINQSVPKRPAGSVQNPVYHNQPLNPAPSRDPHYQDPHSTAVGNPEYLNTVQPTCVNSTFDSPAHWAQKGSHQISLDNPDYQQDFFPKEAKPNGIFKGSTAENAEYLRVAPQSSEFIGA

IC50 (A-431) [µM] | IC50 (NCI-H1975) [µM] | IC50 (U-87 MG) [µM] | IC50 (cells) [µM] | SMILES | IC50 [1] [µM] | IC50 [2] [µM]
73.9 | > 100 | 53.1 | > 100 | CCC(=O)Nc1cc(Nc2cc(-n3c(SC)nnc3-c3ccc(F)cc3)ccn2)c(OC)cc1N(C)CCN(C)C |  | 
52.6 | 53.5 | 68.1 | 35.7 | C=CC(=O)Nc1ccc(OC)c(Nc2cc(-n3c(C)nnc3-c3ccc(F)cc3)ccn2)c1 |  | 
14.3 | > 100 | 8.66 | > 100 | C=CC(=O)Nc1cc(Nc2cc(-n3c(SC)nnc3-c3ccc(F)cc3)ccn2)c(OC)cc1N1CCN(C)CC1 |  | 
> 100 | 41.9 | 19.2 | > 100 | COc1cc(N(C)CCN(C)C)ccc1Nc1cc(-n2c(SC)nnc2-c2ccc(F)cc2)ccn1 |  | 

Second part, the molecule before the results:

SMILES | IC50 (A-431) [µM] | IC50 (NCI-H1975) [µM] | IC50 (U-87 MG) [µM] | IC50 (cells) [µM] | IC50 [1] [µM] | IC50 [2] [µM]
C=CC(=O)Nc1cc(Nc2cc(-n3c(SC)nnc3-c3ccc(F)cc3)ccn2)c(OC)cc1N1CCC(N2CCN(C)CC2)CC1 | 9.3 | 4.5 | 3.6 | 25.6 |  | 
C=CC(=O)Nc1cc(Nc2nccc(-c3cn(C)c4ccccc34)n2)c(OC)cc1N(C)CCN(C)C [OSIMERTINIB] | […] | […] | 4.5 | […] |  | 
C=CC(=O)Nc1cccc(Nc2cc(-n3c(SC)nnc3-c3ccc(F)cc3)ccn2)c1 | 6.9 | 10.7 | 3.5 | 13 | 0.234 | 
C=CC(=O)Nc1ccc(OC)c(Nc2cc(-n3c(CCCO)nnc3-c3ccc(F)cc3)ccn2)c1 | 88.6 | > 100 | > 100 | > 100 |  | 
C=CC(=O)Nc1ccc(OC)c(Nc2cc(-n3c(SC)nnc3-c3ccc(F)cc3)ccn2)c1 | 3.4 | 7.8 | 4.5 | 26.3 | 0.147 | 0.179
